Laboratory results from patent US9688695B2, “Imidazothiadiazole and imidazopyrazine derivatives as protease activated receptor 4 (PAR4) inhibitors for treating platelet aggregation” (BRISTOL-MYERS SQUIBB COMPANY, priority 2012, dated 2017).

Tests used:
PAR4 [1] = biological target: T1, PAR4 (Homo sapiens (Human), UniProt Q96RI0); assay: FLIPR assay in PAR4-expressing HEK293 cells (PAR4 antagonist activity, calcium mobilization); format: cell-based; settings: H-Ala-Phe(4-F)-Pro-Gly-Trp-Leu-Val-Lys-Asn-Gly-NH2-induced calcium mobilization
How it was run: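 HEK293 EBNA cells stably expressing human PAR4 (also endogenous PAR1) preincubated 30 min at room temperature with compound in HBSS/10 mM HEPES, 0.67% DMSO final. PAR4 agonist peptide then added and intracellular calcium mobilization monitored by fluorescence.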

PAR4 [2] = biological target: T1, PAR4; assay: Gamma thrombin induced platelet aggregation assay (PRP assay); format: cell-based; settings: human platelet rich plasma, 96-well microplate
Experimental: Platelet aggregation can be monitored in a 96-well microplate aggregation assay format or using standard platelet aggregometer.
The platelet rich plasma was isolated by centrifugation at 170 g for 14 minutes.
The ability of the compounds of the current invention to inhibit platelet aggregation induced by gamma-thrombin was tested in a 96-well microplate aggregation assay format. Briefly, PRP or washed platelet suspension (100 μl) was pre-incubated for 5 minutes at room temperature with varying concentrations of compounds. Aggregation was initiated by ˜10-50 nM gamma thrombin (Haematologic Technologies, Essex Junction, Vt.), which was titrated daily to achieve 80% platelet aggregation. Refludan at 1 U/mL (Berlex, Montville, N.J.) was added to the gamma thrombin sample to prevent PAR1 activation induced by residual alpha-thrombin contamination. The plate was then placed into a 37° C. Molecular Devices (Sunnyvale, Calif.) SPECTRAMAX® Plus Plate Reader. […] The plate also included an untreated control sample which served as ODmax, while buffer containing no platelets was the ODmin. Platelet aggregation was determined by subtracting the ODmax from the ODmin for the 100% aggregation value. In experimental samples, the observed transmission was subtracted from the minimum value and then compared to the 100% aggregation value to determine the percentage aggregation. IC50 values are determined using Excel Fit software.

T1 sequence (Q96RI0 18-385): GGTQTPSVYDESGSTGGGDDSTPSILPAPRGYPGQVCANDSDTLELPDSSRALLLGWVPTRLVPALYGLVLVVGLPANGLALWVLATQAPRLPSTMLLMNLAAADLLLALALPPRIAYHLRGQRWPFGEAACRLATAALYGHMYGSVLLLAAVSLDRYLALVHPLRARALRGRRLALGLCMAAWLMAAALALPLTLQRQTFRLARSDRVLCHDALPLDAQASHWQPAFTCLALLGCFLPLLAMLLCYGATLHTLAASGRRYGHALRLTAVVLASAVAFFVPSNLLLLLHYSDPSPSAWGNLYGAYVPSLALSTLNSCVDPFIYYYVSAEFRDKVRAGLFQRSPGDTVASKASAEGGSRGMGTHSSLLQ

Row | Structure (SMILES) | EC50 (PAR4 [1]) | IC50 (PAR4 [2])
1 | COc1cc(OCc2csc(N3CCC4(CC3)OCCO4)n2)c2cc(-c3cn4nc(OC)sc4n3)oc2c1 [Example 103, 8-(4-(((6-Methoxy-2-(2-methoxyimidazo[2,1-b][1,3,4]thiadiazol-6-yl)benzofuran-4-yl)oxy)methyl)thiazol-2-yl)-1,4-dioxa-8-azaspiro[4.5]decane] | 0.31 nM | 24 nM
2 | COCCOCc1nc(COc2cc(OC)cc3oc(-c4cn5nc(OC)sc5n4)cc23)cs1 [Example 6, 2-Methoxy-6-(6-methoxy-4-((2-((2-methoxyethoxy)methyl)thiazol-4-yl)methoxy)benzofuran-2-yl)imidazo[2,1-b][1,3,4]thiadiazole] | 0.68 nM | 2030 nM
3 | COc1cc(OCc2csc(Nc3cc(F)ccc3F)n2)c2cc(-c3cn4nc(C)ccc4n3)oc2c1 [Example 265] | 48 nM | > 3000 nM
4 | COc1cc(OCc2csc(-c3ccc(C(=O)NCC(F)(F)F)cc3)n2)c2cc(-c3cn4nc(OC)sc4n3)oc2c1 [Example 305] | 1 nM | 2 nM
5 | COc1cc(OCc2nc(N3CC4CCC(C3)O4)sc2C)c2cc(-c3cn4nc(OC)sc4n3)oc2c1 [Example 93, 3-(4-(((6-Methoxy-2-(2-methoxyimidazo[2,1-b]thiadiazol-6-yl)benzofuran-4-yl)oxy)methyl)-5-methylthiazol-2-yl)-8-oxa-3-azabicyclo-[3.2.1]-octane] | 0.45 nM | 27 nM
6 | COc1cc(OCc2csc(C3(O)CCC4(CC3)OCCO4)n2)c2cc(-c3cn4nc(OC)sc4n3)oc2c1 [Example 126, 8-(4-(((6-Methoxy-2-(2-methoxyimidazo[2,1-b][1,3,4]thiadiazol-6-yl)benzofuran-4-yl)oxy)methyl)-thiazol-2-yl)-1,4-dioxaspiro[4.5]decan-8-ol] | 0.33 nM | 1.9 nM
7 | COc1cc(OCc2nc(N)sc2C)c2cc(-c3cn4nc(OC)sc4n3)oc2c1 [Example 87, 4-(((6-Methoxy-2-(2-methoxyimidazo[2,1-b][1,3,4]thiadiazol-6-yl)benzofuran-4-yl)oxy)methyl)-5-methylthiazol-2-amine] | 24 nM | > 3000 nM
8 | COc1cc(OCc2csc(C3(O)CCC(C(=O)N(C)CC#N)CC3)n2)c2cc(-c3cn4nc(OC)sc4n3)oc2c1 (stereo not drawn) [Example 152, N-(Cyanomethyl)-4-hydroxy-4-(4-(((6-methoxy-2-(2-methoxyimidazo[2,1-b][1,3,4]thiadiazol-6-yl)benzofuran-4-yl)oxy)methyl)thiazol-2-yl)-N-methylcyclohexanecarboxamide] | 0.68 nM | 28 nM
9 | COc1cc(OCc2cscn2)c2cc(-c3cn4nc(OC)sc4n3)oc2c1 [Example 34] | 1.2 nM | 2320 nM
10 | COc1cc(OCc2csc(Nc3ccc(F)c(C)n3)n2)c2cc(-c3cn4nc(C)ccc4n3)oc2c1 [Example 282] | 3480 nM | > 3000 nM
11 | COc1cc(OCc2csc(C(O)(c3ccccc3)C(F)(F)F)n2)c2cc(-c3cn4nc(OC)sc4n3)oc2c1 (stereo not drawn) [Example 137] | 1.2 nM | 23 nM
12 | COc1cc(OCc2csc(N(C)CCO)n2)c2cc(-c3cn4nc(C)ccc4n3)oc2c1 [Example 249] | 15 nM | > 3000 nM
13 | COc1cc(OCc2csc(N(C)C)n2)c2cc(-c3cn4nc(C)ccc4n3)oc2c1 [Example 279] | 7.3 nM | > 3000 nM
14 | COc1cc(OCc2csc(-c3ccccc3)n2)c2cc(-c3cn4nc([C@H](C)F)sc4n3)oc2c1 [Example 192, (S)-2-(1-Fluoroethyl)-6-(6-methoxy-4-((2-phenylthiazol-4-yl)methoxy)benzofuran-2-yl)imidazo[2,1-b][1,3,4]thiadiazole] | 1.9 nM | 28 nM
15 | COc1cc(OCc2csc(Nc3ccc4scnc4c3)n2)c2cc(-c3cn4nc(C)ccc4n3)oc2c1 [Example 281] | 0.6 nM | > 3000 nM
16 | COc1cc(OCc2csc(C(O)(c3ccc(Cl)cc3)C(F)(F)F)n2)c2cc(-c3cn4nc(OC)sc4n3)oc2c1 (stereo not drawn) [Example 145] | 0.45 nM | 29 nM
17 | CC(F)(F)c1nn2cc(-c3cc4c(OCc5csc(-c6ccccc6)n5)nccc4o3)nc2s1 [Example 202, 2-(2-(1,1-Difluoroethyl)imidazo[2,1-b][1,3,4]thiadiazol-6-yl)-4-((2-phenylthiazol-4-yl)methoxy)furo[3,2-c]pyridine] | 43 nM | > 3000 nM
18 | COc1cc(OCc2csc(Nc3cc(C)ccc3F)n2)c2cc(-c3cn4nc(C)ccc4n3)oc2c1 [Example 266] | 16 nM | > 3000 nM
19 | COc1cc(OCc2csc(-c3ccccc3)n2)c2nc(-c3cn4nc(SC)sc4n3)oc2c1 [Example 201, 6-Methoxy-2-(2-(methylthio)imidazo[2,1-b][1,3,4]thiadiazol-6-yl)-4-((2-phenylthiazol-4-yl)methoxy)benzo[d]oxazole] | – | 156 nM

Row | Structure (SMILES) | EC50 (PAR4 [1]) | IC50 (PAR4 [2])
20 | COc1cc(OCc2csc(Nc3cc(C)cc(C)n3)n2)c2cc(-c3cn4nc(C)ccc4n3)oc2c1 [Example 264] | 207 nM | > 3000 nM
21 | COc1cc(OCc2csc(N3CCC(N4CCOCC4)CC3)n2)c2cc(-c3cn4nc(C)ccc4n3)oc2c1 [Example 273] | 53 nM | > 3000 nM
22 | COc1cc(OCc2csc(-c3ccc4c(c3)OCO4)n2)c2cc(-c3cn4nc(C)ccc4n3)oc2c1 [Example 219] | 1 nM | 25 nM
23 | COc1cc(OCc2csc(NCC3CCCO3)n2)c2cc(-c3cn4nc(C)ccc4n3)oc2c1 (stereo not drawn) [Example 256] | 7.8 nM | > 3000 nM
24 | COc1cc(OCc2nc(C3(F)CCOCC3)sc2C)c2cc(-c3cn4nc(OC)sc4n3)oc2c1 [Example 125, 6-(4-((2-(4-Fluorotetrahydro-2H-pyran-4-yl)-5-methylthiazol-4-yl)methoxy)-6-methoxybenzofuran-2-yl)-2-methoxyimidazo[2,1-b][1,3,4]-thiadiazole] | – | 5.7 nM
25 | COc1cc(OCc2csc(N3CCC[C@H]3C)n2)c2cc(-c3cn4nc(C)ccc4n3)oc2c1 [Example 275] | 4.2 nM | 2630 nM
26 | COc1cc(OCc2csc(NCCCN3CCCC3=O)n2)c2cc(-c3cn4nc(C)ccc4n3)oc2c1 [Example 254] | 19 nM | > 3000 nM
27 | COc1cc(OCc2csc(-c3ccc(C)nc3)n2)c2cc(-c3cn4nc(OC)sc4n3)oc2c1 [Example 74] | 0.56 nM | 0.96 nM
28 | COc1cc(OCc2csc(N3CCN(C)C(C)C3)n2)c2cc(-c3cn4nc(C)ccc4n3)oc2c1 (stereo not drawn) [Example 276] | 24 nM | > 3000 nM
29 | CCC(F)(CC)c1nc(COc2cc(OC)cc3oc(-c4cn5nc(OC)sc5n4)cc23)cs1 [Example 141] | 0.47 nM | 24 nM
30 | COc1cc(OCc2csc(NCc3cccnc3)n2)c2cc(-c3cn4nc(C)ccc4n3)oc2c1 [Example 245] | 5.5 nM | 3130 nM
31 | COc1cc(OCc2csc(N3CCC3)n2)c2cc(-c3cn4nc(C)ccc4n3)oc2c1 [Example 257] | 7.5 nM | > 3000 nM
32 | COc1cc(OCc2csc(C3(O)CCC(C(=O)N4CCCC4)CC3)n2)c2cc(-c3cn4nc(OC)sc4n3)oc2c1 (stereo not drawn) [Example 151, (4-Hydroxy-4-(4-(((6-methoxy-2-(2-methoxyimidazo[2,1-b][1,3,4]thiadiazol-6-yl)benzofuran-4-yl)oxy)methyl)thiazol-2-yl)cyclohexyl)(pyrrolidin-1-yl)methanone] | 0.84 nM | 26 nM
33 | COc1cc(OCc2nc(-c3ccc(C(=O)N(C)CC#N)cc3)sc2C)c2cc(-c3cn4nc(OC)sc4n3)oc2c1 [Example 48, N-(Cyanomethyl)-4-(4-(((6-methoxy-2-(2-methoxyimidazo[2,1-b][1,3,4]thiadiazol-6-yl)benzofuran-4-yl)oxy)methyl)-5-methylthiazol-2-yl)-N-methylbenzamide] | 0.51 nM | 1.2 nM
34 | COc1cc(OCc2nc(C3(O)CCOCC3)sc2C(F)(F)F)c2cc(-c3cn4nc(OC)sc4n3)oc2c1 [Example 131, 4-(4-(((6-Methoxy-2-(2-methoxyimidazo[2,1-b][1,3,4]thiadiazol-6-yl)benzofuran-4-yl)oxy)methyl)-5-(trifluoromethyl)thiazol-2-yl)tetrahydro-2H-pyran-4-ol] | 0.66 nM | > 3000 nM
35 | COc1cc(OCc2nc(-c3cccc(CO)c3)sc2C)c2cc(-c3cn4nc(OC)sc4n3)oc2c1 [Example 77] | 1 nM | 1.9 nM
36 | COCCN(C)C(=O)c1ccc(-c2nc(COc3cc(OC)cc4oc(-c5cn6nc(OC)sc6n5)cc34)cs2)cc1 [Example 39] | 0.46 nM | 2.1 nM
37 | COc1cc(OCc2csc(Br)n2)c2cc(-c3cn4nc(C)ccc4n3)oc2c1 [Example 205, 2-Bromo-4-(((6-methoxy-2-(6-methylimidazo[1,2-b]pyridazin-2-yl)benzofuran-4-yl)oxy)methyl)thiazole] | 3.5 nM | 2380 nM
